Usually IC50 stands for the concentration that gives 50% inhibition.

One data set has as its target T1, ICBP90 (UHRF1) (Homo sapiens, UniProt Q96T88).
T1 construct: SET and RING finger-associated (SRA) domain, amino acids 413 to 618 (ICBP90^413-618), C-terminal 6xHis
T1 sequence (Q96T88 413-618): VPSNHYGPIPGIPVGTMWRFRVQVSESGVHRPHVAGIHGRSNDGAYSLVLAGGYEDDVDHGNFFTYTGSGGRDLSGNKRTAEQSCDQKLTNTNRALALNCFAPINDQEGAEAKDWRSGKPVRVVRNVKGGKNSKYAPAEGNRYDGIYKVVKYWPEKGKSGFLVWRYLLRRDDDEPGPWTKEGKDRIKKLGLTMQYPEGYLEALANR
The experiment in a line: AlphaScreen inhibition of purified ICBP90 SRA domain binding to biotinylated MIF promoter CATT8 DNA; confirmed by EMSA dose response.

In data set [1] the test system is ICBP90 413-618 (SRA domain). The data set can be described thus: AlphaScreen. The conditions noted are these: IC50 of the small-molecule inhibitor CMFT, not a DNA affinity; EMSA: LightShift kit buffer, poly(dI-dC), 20 min at 22 C, 6% native PAGE; ELISA: 10 mM Tris-HCl pH 7.5, 50 mM KCl, 1 mM DTT; AlphaScreen: same plus 0.01% …. In general terms: Bead proximity is the source of the signal in Alpha formats.

As to `COC(=O)c1ccc(O)c2nc3c(C=O)c(O)cc(O)c3nc12` [compound 3, 1-carbomethoxy-5-formyl-4,6,8-trihydroxyphenazine], the IC50 on ICBP90 (UHRF1) amounted to 490 nM.

As to “MIF promoter CATT8 (-794 CATT8), 5'-biotin”, in data set [1], the 50% inhibitory concentration (IC50) is 490 nM.

(Values after PMC11259703, “A small-molecule allele-selective transcriptional inhibitor of the MIF immune susceptibility locus” (The Journal of Biological Chemistry, 2024).)
